Measurements: PMC3397464, “Woodylides A–C, New Cytotoxic Linear Polyketides from the South China Sea Sponge Plakortis simplex” (Marine Drugs, 2012)
pIC50: −log10 of the molar value. ≈ marks a conversion by molar mass, not a printed value.

Assays:
[1] = system: Cryptococcus neoformans (ATCC 90113); assay: Antifungal evaluation, IC50 against C. neoformans; format: cell-based; conditions: RPMI 1640; for IC50: Cryptococcus neoformans, ATCC90113, incubated 70–74 h at 35 °C
Protocol: (§1) The three new polyketides 1–3 were evaluated for antifungal activity against Cryptococcus neoformans (ATCC 90113), Candida albicans (Y0109), Trichophyton rubrum (Cmccftla) and Microsporum gypseum (Cmccfmza) (Table 2), for in vitro cytotoxic activity against human cancer cell lines, HCT-116 (colon cancer), A549 (lung carcinoma), HeLa (cervical cancer), QGY-7703 (hepatocarcinoma), and MDA231 (breast adenocarcinoma) (Table 3), and protein tyrosine phosphatase 1B (PTP1B) inhibitory activity (Table 3). […] Cytotoxicity of compound 3 against A549, HeLa, QGY-7703, and MDA231 cell lines was weaker when compared to that of 1. […] The PTP1B inhibitors are recognized as potential therapeutic agents for the treatment of type II diabetes and obesity.
Optical rotations were determined with a Perkin-Elmer 341 polarimeter with 1 mm cell. IR spectra were recorded on a Bruker vector 22 spectrometer with KBr pellets. The NMR experiments were conducted on Bruker AVANCE-600 and Bruker AMX-500 instruments. HRESIMS and ESIMS were obtained on a Q-Tof micro YA019 mass spectrometer. In antifungal evaluation, IC50 values were calculated on XLfit 4.2 software (IDBS: Alameda, CA, USA, 2005). Reversed-phase HPLC was performed on YMC-Pack Pro C18 RS (5 μm) columns with a Waters 1525/2998 liquid chromatograph. Column chromatographies were carried out on silica gel 60 (200–300 mesh; Yantai, China), Sephadex LH-20 (Amersham Biosciences). TLC was carried out using HSGF 254 plates and visualized by spraying with anisaldehyde-H2SO4 reagent.
(§2) Antifungal IC50 values of woodylides A–C against C. neoformans were calculated as described by Ikhlas A. Khan et al.. Amphotericin B was used as the positive control. Minimal Inhibition Concentration (MIC) values of woodylides A–C were determined against three indicators (C. albicans, T. rubrum, and M. gypseum), following the […] (NCCLS) methods. Fluconazole was used as the positive control. Briefly, samples (dissolved in DMSO) were serially diluted in 20% DMSO/saline and transferred (10 µL) in duplicate to 96 well flat bottom microplates. Bacterial strains were grown aerobically at 30 °C in SDA for 16–20 h. A set of different concentrations of compounds 1–3 prepared in RPMI 1640 were next inoculated with the microorganisms and incubated 70–74 h for C. neoformans at 35 °C, 46 h for C. albicans at 35 °C, and 4–7 days for T. rubrum and M. gypseum at 30 °C. The IC50 values were calculated by using the fit model 201 of XLfit 4.2 software.

Cytotoxicity MTT assay [2] = format: cell-based, human; conditions: human, HeLa cells (cervical cancer), 48 h treatment, 1 to 100 μg/mL
Protocol: (§3) Cytotoxicity of compound 3 against A549, HeLa, QGY-7703, and MDA231 cell lines was weaker when compared to that of 1. […] The PTP1B inhibitors are recognized as potential therapeutic agents for the treatment of type II diabetes and obesity. The cytotoxicity of compounds 1-3 against HCT-116, A549, HeLa, QGY-7703, and MDA231 cell lines was evaluated by the MTT assay as described in a previous report. Briefly, compounds were solubilized in DMSO with the working concentration of test substances ranging from 1 to 100 μg/mL. Cells at the exponential growth phase were harvested and seeded into 96-well plates. After incubation for 24 h, the cells were treated with various concentrations of test substances for 48 h and then incubated with 1 mg/mL MTT at 37 °C for 4 h, followed by dissolving in DMSO. The produced formazan was measured by the absorbance at 570 nm on a microplate reader. The IC50 values were calculated on the basis of percentage inhibition using the linear regression method.

HeLa (cervical cancer) = assay: Cytotoxicity MTT assay; format: cell-based, human; conditions: 48 h treatment, 1 to 100 μg/mL
Protocol: as §3

Candida albicans (Y0109) = assay: Antifungal evaluation, MIC (NCCLS broth dilution); format: cell-based; conditions: 46 h at 35 °C, range 1.25–640 μg/mL
Protocol: as §1, §2

[3] = system: Trichophyton rubrum (Cmccftla); assay: Antifungal evaluation, MIC (NCCLS broth dilution); format: cell-based; conditions: 4–7 days at 30 °C, range 1.25–640 μg/mL, read-out: Antifungal Activity T. rubrum, MIC
Protocol: as §1, §2

[4] = system: Microsporum gypseum (Cmccfmza); assay: Antifungal evaluation, MIC (NCCLS broth dilution); format: cell-based; conditions: Nannizzia gypsea, 4–7 days at 30 °C, range 1.25–640 μg/mL
Protocol: as §1, §2

Cytotoxicity MTT assay [5] = format: cell-based; conditions: human, 48 h treatment, 1 to 100 μg/mL
Protocol: as §3

[6] = target: T1, protein tyrosine phosphatase 1B (PTP1B) (Homo sapiens, UniProt P18031); assay: PTP1B inhibitory assay (pNPP hydrolysis); format: biochemical; conditions: recombinant PTP1B catalytic domain, 30 °C, pH 6.5
T1 construct: The enzymatic activities of the PTP1B catalytic domain were determined at 30 °C by monitoring the hydrolysis of pNPP
T1 sequence (P18031 3-277 limits assumed): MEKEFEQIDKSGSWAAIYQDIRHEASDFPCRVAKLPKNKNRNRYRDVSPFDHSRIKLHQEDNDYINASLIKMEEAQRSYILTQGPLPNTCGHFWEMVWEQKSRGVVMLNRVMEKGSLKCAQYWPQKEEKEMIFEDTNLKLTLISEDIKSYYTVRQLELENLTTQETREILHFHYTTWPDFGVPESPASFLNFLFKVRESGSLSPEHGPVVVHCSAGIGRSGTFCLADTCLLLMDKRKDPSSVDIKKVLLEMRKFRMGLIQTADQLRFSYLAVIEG
Protocol: The enzymatic activities of the PTP1B catalytic domain were determined at 30 °C by monitoring the hydrolysis of pNPP.

IC50 [1] [µg/mL]	MIC [3] [µg/mL]	MIC [4] [µg/mL]	Compound	other results
3.67 (≈ 11.7 µM)	32 (≈ 102 µM)	32 (≈ 102 µM)	CCCCC(C)CC(O)(/C=C(/CC)[C@@H](O)CC(=O)OC)CC (some centres unmarked) [Compound 1, Woodylide A]	IC50 at 48 h (Cytotoxicity MTT assay [2]): 11.2 µg/mL (≈ 35.6 µM); Cytotoxicity IC50 HeLa (HeLa (cervical cancer)): 11.22 µg/mL; MIC (Candida albicans (Y0109)): 32 µg/mL (≈ 102 µM); IC50 at 48 h (Cytotoxicity MTT assay [5]; A549 cells (lung carcinoma)): 37.8 µg/mL (≈ 120 µM); IC50 at 48 h (Cytotoxicity MTT assay [5]; QGY-7703 cells (hepatocarcinoma)): 25.8 µg/mL (≈ 82 µM)
10.8 (≈ 36.1 µM)	32 (≈ 107 µM)	32 (≈ 107 µM)	CCCCC(C)CC(O)(C=C(CC)C(O)CC(=O)O)CC (centres unmarked) [Compound 3, Woodylide C]	IC50 at 48 h (Cytotoxicity MTT assay [5]; HCT-116 cells (colon cancer)): 9.4 µg/mL (≈ 31.3 µM); pIC50 [6]: 4.81

The remaining lines, values behind:

Compound	IC50 [1] [µg/mL]	MIC [3] [µg/mL]	MIC [4] [µg/mL]	other results
C[C@@H]1[C@H](O)[C@@H](C)/C=C/C=C/C=C/C=C/C=C/C=C/C=C/[C@H](O[C@@H]2O[C@H](C)[C@@H](O)[C@H](N)[C@@H]2O)C[C@@H]2O[C@](O)(C[C@@H](O)C[C@@H](O)[C@H](O)CC[C@@H](O)C[C@@H](O)CC(=O)O[C@H]1C)C[C@H](O)[C@H]2C(=O)O [Amphotericin B, reference compound]	0.35 (≈ 0.379 µM)	–	–	–
CCCCC(CC)CC(O)(/C=C(/CC)[C@@H](O)CC(=O)OC)CC (some centres unmarked) [Compound 2, Woodylide B]	–	–	–	Antifungal Activity C. neoformans, IC50 ([1]; incubated 70–74 h at 35 °C): inactive
OC(Cn1cncn1)(Cn1cncn1)c1ccc(F)cc1F [Fluconazole, reference compound]	–	2 (≈ 6.53 µM)	8 (≈ 26.1 µM)	–
